Results as given in patent publication US20250297220A1, “IMMUNE-ACTIVATING COMPLEXES” (Dynamic Cell Therapies, Inc., priority 2022, published 2025).

How the values were obtained:
[1] = test system: engineered cytokine receptor switches (fluorescein-binding receptor domains, IL-7 receptor-a intracellular signaling domains); assay: T-cell activation, transduction, expansion and differentiation; memory phenotype quantification; format: cell-based; details: after 5 days in multi-well plates; non-fluorescein contacted cells about 30%
Text: This example covers activation, differentiation, and expansion of immune cells with engineered cytokine receptor switches. The engineered cytokine receptor switches included fluorescein-binding receptor domains and IL-7 receptor-a intracellular signaling domains. The cells were activated with CD3 and CD28 antibody-coated beads, followed by small molecule activators for the engineered cytokine switches to promote differentiation to memory phenotypes. The proportion of stem-cell memory, central memory, and effector memory cells were measured following differentiation.
Activation, transfection, expansion, and differentiation were performed according to the timeline in FIG. 28A. The cells were maintained in media with 20 units/ml IL2 throughout the incubation. The cells were first contacted with CD3/CD28 activating beads at a ratio of 1:1 (cells to beads). Following three days of activation and expansion, the cells were transfected with a gamma retroviral vector encoding the engineered cytokine receptor switch with fluorescein binding affinity and mCherry for fluorescence detection. The cells were then transferred to a multi-well plate. […]
Following 5 total days of incubation in the multi-well plates, the cells were analyzed for (1) stem-cell memory, (2) central memory, (3) effector memory, and (4) terminally differentiated effector memory re-expressing CD45RA phenotype. […]

[2] = Molar absorptivities at 280 nm and 493 nm; format: physicochemical
Protocol: UV-vis absorption profiles were obtained for compound 7-functionalized antibodies, unfunctionalized antibodies, and free compound 7. FIG. 47 provides the results of these analyses. Molar absorptivities (8) were determined for the anti-BCMA antibody at 280 nm (primarily corresponding tyrosine and tryptophan absorbances from the anti-BCMA antibody) and at 493 nm for maleimide fluorescein and 5 (6)-carboxy fluorescein (primarily corresponding to the HOMO to LUMO transition within the fluorescein x-system), and are summarized in Table 18. As the unfunctionalized antibody minimally absorbed around 493 nm, absorbance in this region is quantitative for fluorescein concentration.

| SMILES | proportion of central memory cells [1] | ε280 nm ([2]; molar absorptivity at 280 nm) [M⁻¹ cm⁻¹] | ε493nm ([2]; molar absorptivity at 493 nm) [M⁻¹ cm⁻¹] |
| --- | --- | --- | --- |
| O=C1OC2(c3ccc(O)cc3Oc3cc(O)ccc32)c2ccccc21 [fluorescein] | about 50% | – | – |
| O=C1OC2(c3ccc(O)cc3Oc3cc(O)ccc32)c2ccc(N3C(=O)C=CC3=O)cc21 [Fluorescein-Maleimide] | – | 7968 | 43908 |
